Data taken from ChEMBL document CHEMBL2202952, “Marthiapeptide A, an anti-infective and cytotoxic polythiazole cyclopeptide from a 60 L scale fermentation of the deep sea-derived Marinactinospora thermotolerans SCSIO 00652” (J Nat Prod, 2012).
≈ marks a conversion by molar mass, not a printed value. Calls of active or inactive are those of the source. No cut-off for these calls is given here.

Tests used:
[1] = tested on: Escherichia coli; assay: Antimicrobial activity against Escherichia coli DH5[alpha]; assay type: functional
[2] = tested on: Escherichia coli; assay: Antimicrobial activity against Escherichia coli ATCC 25922; assay type: functional
[3] = Antimicrobial activity against Aeromonas hydrophila subsp. hydrophila ATCC 7966; assay type: functional
[4] = tested on: Bacillus thuringiensis; assay: Antimicrobial activity against Bacillus thuringiensis; assay type: functional
[5] = tested on: Bacillus subtilis; assay: Antimicrobial activity against Bacillus subtilis ATCC 6633; assay type: functional
[6] = tested on: Staphylococcus aureus; assay: Antimicrobial activity against Staphylococcus aureus ATCC 29213; assay type: functional
[7] = tested on: Micrococcus luteus; assay: Antimicrobial activity against Micrococcus luteus; assay type: functional
[8] = tested on: Nucleic Acid; assay: Binding affinity to human telomeric intramolecular HTG21 G-quadruplex DNA at 20 uM by CD spectroscopy; assay type: nucleic-acid assay
[9] = tested on: Nucleic Acid; assay: Effect on F21T G-quadruplex DNA thermal stabilization assessed as change in melting temperature at 2 uM by FRET; assay type: nucleic-acid assay
[10] = tested on: HepG2; assay: Potency index, ratio of IC50 for cisplatin to IC50 for test compound against human HepG2 cells by SRB method; assay type: functional
[11] = tested on: NCI-H460; assay: Potency index, ratio of IC50 for cisplatin to IC50 for test compound against human NCI-H460 cells by SRB method; assay type: functional
[12] = tested on: MCF7; assay: Potency index, ratio of IC50 for cisplatin to IC50 for test compound against human MCF7 cells by SRB method; assay type: functional
[13] = tested on: SF-268; assay: Potency index, ratio of IC50 for cisplatin to IC50 for test compound against human SF268 cells by SRB method; assay type: functional
[14] = tested on: NCI-H460; assay: Cytotoxicity against human NCI-H460 cells by SRB method; assay type: functional, cell-based
[15] = tested on: HepG2; assay: Cytotoxicity against human HepG2 cells by SRB method; assay type: functional, cell-based
[16] = tested on: MCF7; assay: Cytotoxicity against human MCF7 cells by SRB method; assay type: functional, cell-based
[17] = tested on: SF-268; assay: Cytotoxicity against human SF268 cells by SRB method; assay type: functional, cell-based

| Compound | MIC [1] | MIC [2] | MIC [3] | MIC [4] | MIC [5] | MIC [6] | MIC [7] | Activity [8] | ΔTm [9] | Ratio IC50 [10] | Ratio IC50 [11] | Ratio IC50 [12] | Ratio IC50 [13] | IC50 [14] | IC50 [15] | IC50 [16] | IC50 [17] |
| --- | --- | --- | --- | --- | --- | --- | --- | --- | --- | --- | --- | --- | --- | --- | --- | --- | --- |
| CC[C@H]1OC(=O)[C@H](C)[C@@H](O[C@H]2C[C@@](C)(OC)[C@@H](O)[C@H](C)O2)[C@H](C)[C@@H](O[C@@H]2O[C@H](C)C[C@H](N(C)C)[C@H]2O)[C@](C)(O)C[C@@H](C)C(=O)[C@H](C)[C@@H](O)[C@]1(C)O [ERYTHROMYCIN] | 64 µg/mL (≈ 87.2 µM) | 32 µg/mL (≈ 43.6 µM) | 4 µg/mL (≈ 5.45 µM) | < 1 µg/mL | < 1 µg/mL | 16 µg/mL (≈ 21.8 µM) | < 1 µg/mL |  |  |  |  |  |  |  |  |  |  |
| NC[C@H]1O[C@H](O[C@H]2[C@H](O)[C@@H](O[C@H]3O[C@H](CO)[C@@H](O)[C@H](N)[C@H]3O)[C@H](N)C[C@@H]2N)[C@H](O)[C@@H](O)[C@@H]1O [KANAMYCIN] | 32 µg/mL (≈ 66 µM) | 16 µg/mL (≈ 33 µM) | < 1 µg/mL | 4 µg/mL (≈ 8.26 µM) | < 1 µg/mL | 8 µg/mL (≈ 16.5 µM) | 32 µg/mL (≈ 66 µM) |  |  |  |  |  |  |  |  |  |  |
| CC[C@H](C)[C@@H]1NC(=O)[C@@H](Cc2ccccc2)NC(=O)[C@@H]2CSC(=N2)c2csc(n2)-c2csc(n2)-c2csc(n2)[C@@H](C)NC1=O [MARTHIAPEPTIDE A] | > 128 µg/mL | > 128 µg/mL | > 128 µg/mL | 2 µg/mL (≈ 3 µM) | 4 µg/mL (≈ 6.01 µM) | 8 µg/mL (≈ 12 µM) | 2 µg/mL (≈ 3 µM) | inactive | 0.9 °C | 5 | 5 | 5 | 5 | 470 nM | 520 nM | 430 nM | 380 nM |
